Columns and labels:
[1] = post-menopausal use of estrogen alone, median follow up 11.8 years; CI 0.62-0.95, p 0.02; cited from earlier work
[2] = tested on: MCF10A KRAS-variant+/- (MT) cell lines; test: Anchorage independent growth (soft agar colony formation) as measure of transformation; type: cell-based, human; settings: for level of transformation in anchorage independent growth assay: KRAS-variant (L1 and L2) versus parental (WT) MCF10A lines, comparison of anti-estrogen treatments and estrogen; for fold increased colony formation rate: KRAS-variant MCF10A lines, grown without EGF
Experimental: Anchorage independent growth was assessed as described previously (Sweasy et al. (2005) PNAS 102:14350-5). After thawing and growing cells until confluence in EGF supplemented media (20 ng/ml), cells were plated into conditions of study for two passages. For estrogen depletion experiments phenol red free DMEM/F12 medium (Invitrogen) and 5% charcoal-stripped horse serum (Thermo Fisher) were used, and Tamoxifen or estrogen was added to a final concentration of 1 μM after the first passage, as appropriate. To plate, 100 μl of MCF10A (WT) or (MT) cells at a density of 400,000 cells/ml were mixed with 2 ml of media for the condition under study containing 2 ml 0.7% noble agar (USB). 1 ml of the cell mixture was added to 1 ml of 1.0% noble agar in a well of a 6-well dish. Cells were fed twice weekly by layering on a 50:50 mixture of media with 0.7% agar for 2 weeks, followed by only media for two-three additional weeks. The number of colonies present in each of ten microscope fields per well from a total of 3 wells per experiment was counted to evaluate transformation and is reported as an average of the 2 separate MT lines.
Next, WT and MT lines were plated in soft agar to test for transformation, as measured by anchorage independent growth. […] The impact of estrogen withdrawal on this transformation was next evaluated by the use of charcoal stripped serum, tamoxifen, or a combination of the two. […] These findings biologically confirm wide spread transformation in normal breast epithelium with acute estrogen withdrawal in breast cells with the KRAS-variant.
Next, different forms of estrogen inhibitors were tested to determine their effects on transformation in the presence of the KRAS-variant. Tamoxifen (ER antagonist in breast), anastrozole (aromatase inhibitor, inhibiting estrogen synthesis), and fulvestrant (a complete ER antagonist) were administered to parental (WT) or two KRAS-variant (L1 and L2) MCF10A cell lines and anchorage independent growth was assessed using the colony formation assay described above.

Compound	breast cancer incidence versus placebo, HR [1]	level of transformation in anchorage independent growth assay ([2]; FIG. 5)	level of transformation in anchorage independent growth assay ([2]; FIG. 5, listed as Estrogen)	transformation (colony formation) after return of estrogen to charcoal-stripped media ([2]; KRAS-variant MT cell lines, charcoal-stripped media, estrogen 1 μM, p=0.018, FIG. 4)	colonies formed relative to the anastrozole or fulvestrant treatments ([2]; KRAS-variant (L1 and L2) MCF10A lines, FIG. 5) [times]	fold increased colony formation rate ([2]; Tamoxifen combined with charcoal stripped media) [fold]	fold increased colony formation rate ([2]; in the presence of Tamoxifen (1 μM final)) [fold]
estrogen	0.77	prevented transformation	prevents transformation	decreased transformation			
CC/C(=C(\c1ccccc1)c1ccc(OCCN(C)C)cc1)c1ccccc1 [Tamoxifen]		highest level of transformation			~10	7.9	2

From US20190307770A1, “METHODS FOR TREATING OR PREVENTING CANCER IN A KRAS-VARIANT PATIENT AND FOR […] OF […] PRIMARY BREAST TUMORS” (MIRADX, priority 2014, published 2019)
